Laboratory results from patent US20150119352A1, “DINUCELOSIDE POLYPHOSPHATES FOR THE TREATMENT OF PAIN” (GlobalAcorn Ltd., priority 2012, published 2015).
Entries after “also recorded” stand apart in the source; their conditions may differ. Like-named read-outs stand apart in the source and are kept apart here.

How the values were obtained:
[1] = system: male Wistar rats; assay: Formalin test (nociceptive behaviour, spontaneous jerking of injected paw); assay type: in vivo, rat; conditions: for nociceptive behavior after control injection of compound alone: 100 μM (100 μL), no formalin; for IC50: Rattus norvegicus; for IC50 First phase (acute pain), calculated / IC50 Second phase (chronic pain), calculated: Table 1, assuming 40 g rat body weight; for First phase (acute pain) / First phase (acute pain) (μg/kg) / Second phase (chronic pain) / Second phase (chronic pain) (μg/kg): Table 2; for First phase (acute pain) Human (70 kg) nmol / Second phase (chronic pain) Human (70 kg) nmol: Table 2, estimated indicative dose for 70 kg human; for First phase (acute pain) Rat (40 g) nmol / Second phase (chronic pain) Rat (40 g) nmol: Table 2, per 40 g rat; for recalculated effective concentration (second phase): assuming 40 g rat body weight; for number of nocifensive events triggered by the injection of formalin: co-injection 100 μL with formalin
Description: FIG. 6. Effects of subcutaneous Ap4A analogues on pain responses induced by intraplantar (right hindpaw) formalin injection. Rats were subcutaneously injected with formalin solution alone (0.5%, 50 μL, control) or co-injected with the formalin solution and solutions with AppCH2ppA (1 μM-100 μM, 100 μL) or AppNHppA (0.1 μM-100 μM, 100 μL). Age-matched control animals were injected with saline. A. Time-course of the effects of subcutaneous AppCH2ppA (a) and AppNHppA (b) on the number of the spontaneous jerkings of the injected paw. B. Bar-graphs of the effects of AppCH2ppA (a, b) and AppNHppA (c, d) on the integral number of spontaneous jerkings. Measurements were made during the acute phase (0-6 min) and tonic phase (7-45 min) of the formalin response. C. Dose-response curves for AppCH2ppA (a) and AppNHppA (b) during tonic and acute phases.
The formalin test experiments were performed on 21-day old male Wistar rats, weighing 40±5 g according to the method described previously (Simonetti et al, 2006; Yegutkin et al, 2008). Briefly, animal was acclimated to an acrylic observation chamber for at least 1 h before the injection of formalin ([…] of 0.5% solution in 0.9% saline) into the dorsal surface of the right hindpaw. Age-matched control animals were injected with saline (100 μL). Immediately after the injection, each animal was returned to the observation chamber and its behavioural characteristics were recorded for 45 min. We noticed consistently observed type of response: spontaneous jerking of the injected paw. The number of jerks was measured for each […], using self-developed computer software.
The effects of AppNHppA and AppCH2ppA were examined on the behavioral reactions of rats in inflammatory pain models. Injection of diluted formalin into a rodent's hindpaw produces a biphasic nociceptive response consisting of immediate (acute phase) and tonic (inflammatory phase) components. The first phase of a formalin response (i.e. 0-5 min after injection) involves a direct effect of formalin on the pain receptors, while changes in animal behavior during the second tonic phase (i.e. 7-45 min after injection) are caused by hyperalgesia that develops due to the sensitization of nociceptive and spinal neurons via mechanisms that are triggered by repetitive stimulation during the first phase.

[2] = system: rats; assay: Hargreaves plantar test under complete Freund adjuvant-induced thermal hyperalgesia; assay type: in vivo, rat; conditions: for antinociceptive effect on CFA-induced thermal hyperalgesia (paw withdrawal latency): injection (100 μL) into the inflamed hind paw
Description: FIG. 8. […] A. Time-course of the effects of 1 and 20 μM (100 μL) of AppCH2ppA and AppNHppA on the paw withdrawal latency (PWL). B. Bar-graphs of the effects of AppCH2ppA and AppNHppA on the integral PWL.
FIG. 10. […] A. Time-course of the effects of i.t. AppCH2ppA on complete Freund adjuvant-induced thermal hyperalgesia (Hargreaves plantar test). B. Bar-graphs of the effects of i.t. AppCH2ppA on rat PWL.

[3] = Table 1, concentration, read-out: IC50 First phase (acute pain)
[4] = Table 1, concentration, read-out: IC50 Second phase (chronic pain)
[5] = co-injection (100 μL) with formalin into paw, read-out: IC50 in the first (acute) phase
[6] = co-injection (100 μL) with formalin into paw, read-out: IC50 in the second (tonic) phase

Compound | nociceptive behavior after control injection of compound alone [1] | IC50 [1, 3] | IC50 [1, 4] | IC50 [1, 5] | IC50 [1, 6] | IC50 First phase (acute pain), calculated [1] | IC50 Second phase (chronic pain), calculated [1] | First phase (acute pain) [1] | First phase (acute pain) (μg/kg) [1] | Second phase (chronic pain) [1] | Second phase (chronic pain) (μg/kg) [1] | First phase (acute pain) Human (70 kg) nmol [1] | Second phase (chronic pain) Human (70 kg) nmol [1] | First phase (acute pain) Rat (40 g) nmol [1] | Second phase (chronic pain) Rat (40 g) nmol [1] | recalculated effective concentration (second phase) [1] | number of nocifensive events triggered by the injection of formalin [1] | kH, second (tonic) phase ([1]; co-injection with formalin) | antinociceptive effect on CFA-induced thermal hyperalgesia (paw withdrawal latency) [2] | other results
Nc1ncnc2c1ncn2[C@@H]1O[C@H](COP(=O)(O)OP(=O)(O)NP(=O)(O)OP(=O)(O)OC[C@H]2O[C@@H](n3cnc4c(N)ncnc43)C(O)C2O)C(O)C1O (stereo in doubt) [AppNHppA] | Lack of nociceptive behavior | > 100000 nM | 250 ± 90 nM | > 100000 nM | 250 ± 60 nM | >250 nmol/kg | 0.63 ± 0.23 nmol/kg | >250 nmol/kg | (209) μg/kg | 0.63 ± 0.23 nmol/kg | (0.526) μg/kg | 17500 nmol | 44.1 nmol | 10 nmol | 0.0252 nmol | 0.63±0.23 nmolkg | potently reduced | 0.89±0.18 | antinociceptive effect was observed | 
Nc1ncnc2c1ncn2[C@@H]1O[C@H](COP(=O)(O)OP(=O)(O)CP(=O)(O)OP(=O)(O)OC[C@H]2O[C@@H](n3cnc4c(N)ncnc43)C(O)C2O)C(O)C1O (stereo in doubt) [AppCH2ppA] | Lack of nociceptive behavior | 32000 ± 2200 nM | 510 ± 60 nM | 31900 ± 22000 nM | 500 ± 60 nM | 80 ± 5.5 nmol/kg | 1.28 + 0.06 nmol/kg | 80 ± 5.5 nmol/kg | (67) μg/kg | 1.28 ± 0.06 nmol/kg | (1.067) μg/kg | 5600 nmol | 89.6 nmol | 3.2 nmol | 0.0512 nmol | 1.28±0.06 nmolkg | potently reduced | 0.89±0.18 | antinociceptive effect was observed | kH, first (acute) phase ([1]; co-injection with formalin): 0.82±0.09; times more effective reduction of nocifensive behavior in second (tonic) phase compared with first (acute) phase ([1]; rat, in vivo): 60 times; antinociceptive effect ([2]; intra-thecal administration, 20 μM): 27%; antinociceptive effect ([2]; intraplantar administration): 53%; antinociceptive effect of intrathecal compared with intraplantar injection ([2]; intrathecal 20 μM, 100 μL): weaker delayed antinociceptive effect; also recorded: less pronounced analgesia; effect of local peripheral intraplantar injection relative to intrathecal injection ([2]; rat, in vivo): two-fold higher effect
